# Measured values published in patent EP4635969A1, “NOVEL GLUCOCORTICOID, METHOD FOR PREPARING SAME, AND USE THEREOF” (Tianjin Pharmaceutical Biotechnology Co., Ltd., priority 2022, dated 2024).
# Read-outs that look alike come from different tables or passages of the source.
# Experiments:
# [1] = system: intraocular pressure of guinea pigs; test: Adverse reactions of continuous ocular administration: intraocular pressure; format: in vivo
# Procedure: Pharmacological Example 9: Experiment on Adverse Reactions of Continuous Ocular Administration in Guinea Pigs
# Test samples: Compounds 17 and 23 were prepared as 5 mg/5 mL ophthalmic suspensions with reference to the formulation of Fluorometholone Eye Drops, and stored at room temperature protected from light until use.
# Positive control drug: Fluorometholone Eye Drops (specification: 5 mL/5 mg; Santen Pharmaceutical (CHINA) Co., Ltd.; Lot No.: 1FM6545), Loteprednol Etabonate Eye Drops (specification 0.5% (5 mg/mL); Shandong Bausch & Lomb Freda Pharmaceutical Co., Ltd; Lot No. 386521), stored at room temperature protected from light until use.
# Animals: 50 guinea pigs, conventional grade, with an equal number of males and females, weighing 300-350 g..
# Animal grouping: After 5 days of adaptive feeding, the guinea pigs were randomly divided into 5 groups based on body weight. Group 1 was the blank control group, and 50 µL of normal saline was dropped into the eyes (bilateral) of the guinea pigs. Groups 2 to 5 were the fluorometholone group, loteprednol group, compound 17 group, and compound 23 group, respectively, and the corresponding drugs were dropped into the eyes (bilateral) of the guinea pigs. Table 19. Animal grouping and drug administration dosages for the experiment on adverse reactions of continuous ocular administration in guinea pigs
# Intraocular pressure measurement time: The intraocular pressure of animals in each group was measured before administration and on days 7, 14, 21, and 28 post-administration.
# [2] = Pharmacokinetic (PK) experiment in rats; format: in vivo, male SD rats; conditions: same experimental conditions
# Procedure: Pharmacological Example 11. Pharmacokinetic (PK) Experiment in Rats
# The solution was prepared before administration.
# Animals: 6 male SD rats, SPF grade (Beijing Vital River Laboratory Animal Technology Co., Ltd.).
# Animal grouping: The animals were weighed prior to administration, and the dosage was calculated based on body weight. The animals in the oral administration group were fasted overnight (10-14 hours) before administration, and food was reintroduced 4 hours post-administration. Table 23. Animal grouping and drug administration dosages for pharmacokinetic (PK) experiment in rats
# Blood collection time points: Blood was collected from the jugular vein at 2 min, 5 min, 15 min, 30 min, 1 h, 2 h, 4 h, 8 h, and 24 h after administration. Approximately 0.25 mL of blood was collected for each sample, anticoagulated with heparin sodium, and then placed on ice immediately.
# Plasma sample processing: Blood samples were placed on ice after collection and centrifuged to separate plasma within 1 hour (centrifugation conditions: 6000 rpm, 3 minutes, 2-8 °C ). Plasma samples were stored in a -80°C freezer before analysis.
# Data processing: Pharmacokinetic parameters were calculated using Phoenix WinNonlin 8.2.0 based on the plasma drug concentration data at different time points.
# [3] = biological target: T1, mineralocorticoid receptor (MR) (Homo sapiens, UniProt P08235); test: Assay for agonist activity on mineralocorticoid receptor (luciferase reporter, HEK293 cells transfected with pBIND-MR plasmid); format: cell-based; conditions: for target selectivity: MR/GR and PR/GR, same experimental conditions; for Target selectivity MR/GR: ratio of EC50 values
# T1 sequence (P08235 726-984): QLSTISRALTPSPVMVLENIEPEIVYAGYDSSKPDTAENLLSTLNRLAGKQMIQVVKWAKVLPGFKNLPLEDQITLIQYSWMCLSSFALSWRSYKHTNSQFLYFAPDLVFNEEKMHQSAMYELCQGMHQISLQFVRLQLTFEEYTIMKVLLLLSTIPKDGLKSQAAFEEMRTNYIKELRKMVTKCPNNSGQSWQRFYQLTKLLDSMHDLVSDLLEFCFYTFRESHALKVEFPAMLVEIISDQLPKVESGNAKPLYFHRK
# Summary of the method: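 HEK293 cells transiently transfected with pBIND-MR or pBIND-PR, seeded in phenol red-free DMEM with 5% charcoal-stripped serum. Compounds tested as 12-point 4-fold dilutions from 50 µM in duplicate, 0.1% DMSO blank. Luciferase luminescence read, EC50 by nonlinear fit.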
# [4] = system: dry eye syndrome model New Zealand rabbits; test: Dry eye syndrome experiment (benzalkonium chloride model): tear film break-up time; format: in vivo, male New Zealand White rabbits; conditions: compared with the model group
# Procedure: (§1) Positive control drug: Fluorometholone Eye Drops (specification: 5 mL/5 mg; Santen Pharmaceutical (CHINA) Co., Ltd.; Lot No.: 1FM6625) was used as the positive control drug and stored at room temperature protected from light until use.
# Thirty male New Zealand White rabbits (conventional grade) were prepared. Six rabbits were randomly selected as the blank control group, and the remaining animals were administered 0.1% benzalkonium chloride to the left eye twice daily (morning and evening) , 10 µL/animal each time. On day 6 of modeling, tear secretion was measured using phenol red cotton threads to determine whether the model was successfully established. […] During the administration, all animals except the blank control group were administered 10 µL of 0.1% benzalkonium chloride to the left eye once daily to maintain dry eye symptoms..
# • Test time: D3, D7, D15; • Test animals: All animals were tested before grouping; all enrolled surviving animals were tested after administration; • Test method: 1% Fluorescein sodium was dropped onto the inner side of the rabbit's lower eyelid, 10 µL/animal. The rabbit's eyes were closed and gently massaged to evenly distribute the fluorescein sodium on the eye surface. The rabbit's eyes were then sequentially placed under a slit lamp. The tear film break-up time was observed and recorded as the time from eye opening to the appearance of the first dark spot. If no dark spot appeared, the time was calculated as 60 seconds.
# (§2) The normality and homogeneity of variance were tested by Levene's test. If there was no statistical significance (P > 0.05), one-way analysis of variance (ANOVA) was used for statistical analysis. If ANOVA was statistically significant (P ≤ 0.05), LSD test (parametric method) was used for comparative analysis. If the variance was heterogeneous (P ≤ 0.05), Kruskal-Wallis test was used. If the Kruskal-Wallis test was statistically significant (P ≤ 0.05), Dunnett's test (nonparametric method) was used for comparative analysis.
# psoriasis model mice = test: Psoriasis experiment (imiquimod model): skin lesion (PASI) score; format: in vivo; conditions: for PASI scores: compared with the model group
# Procedure: Positive control drug: Fluticasone Propionate Cream (specification: 0.05% × 15 g, Zhejiang Xianju Pharmaceutical Co. Ltd., Lot No. 211106), stored at room temperature protected from light until use.
# Adult mice were selected, and the skin of 2 cm × 3 cm on the back of mice was locally depilated. The mice in the model group and drug administration group were applied with 62.5 mg of 5% imiquimod cream on their back for modeling, while the mice in the blank control group were applied with medical petroleum jelly on their back daily. The above procedures were performed once a day for 7 consecutive days.
# The mice in the drug administration group were applied with the corresponding drugs on their backs daily at a dose of 0.2 g per mouse, while the blank control group and the model group were only applied with 0.2 g of the test sample drug matrix. One hour after drug administration, the drugs were wiped off with sterile cotton swabs, followed by the application of imiquimod. The above procedures were performed once a day for 7 consecutive days.
# Referring to the clinical Psoriasis Area and Severity Index (PASI) scoring criteria, erythema, scaling, and thickness at the skin lesion sites were evaluated on a 0-4 scale on day 8 of modeling, and the total score was obtained by summing the three items.
# • (1) Erythema: a score of 0 points indicates no erythema, a score of 1 point indicates erythema appearing light red, a score of 2 points indicates erythema appearing red, a score of 3 points indicates erythema appearing dark red, and a score of 4 points indicates erythema appearing extremely deep red; • (2) Scaling: a score of 0 points indicates no scaling on the surface, a score of 1 point indicates partial skin lesions covered with scaling, a score of 2 points indicates most skin lesions covered with scaling, a score of 3 points indicates almost all skin lesions covered with scaling in layers, and a score of 4 points indicates all skin lesions covered with scaling; • (3) Thickness: a score of 0 points indicates skin lesions flush with normal skin, a score of 1 point indicates skin lesions slightly elevated above normal skin surface, a score of 2 points indicates moderate elevation of skin lesions, a score of 3 points indicates thickened skin lesions with obvious elevation, and a score of 4 points indicates highly thickened skin lesions with prominent elevation.
# Statistical analysis was performed using SPSS software, and the results were expressed as mean ± standard deviation. One-way ANOVA was used for intergroup comparisons. For data with homogeneous variance, the LSD test was used; for data with heterogeneous variance, the Dunnett-t test was used. A value of P < 0.05 was considered statistically significant.
# [5] = system: dry eye syndrome model New Zealand rabbits; test: Dry eye syndrome experiment (benzalkonium chloride model): corneal fluorescein sodium staining; format: in vivo, male New Zealand White rabbits; conditions: compared with the model group
# Procedure: Pharmacological Example 6: Therapeutic Pharmacodynamic Experiment on Dry Eye Syndrome in New Zealand Rabbits
# as §1
# Thirty male New Zealand White rabbits (conventional grade) were prepared. Six rabbits were randomly selected as the blank control group, and the remaining animals were administered 0.1% benzalkonium chloride to the left eye twice daily (morning and evening) , 10 µL/animal each time. […] During the administration, all animals except the blank control group were administered 10 µL of 0.1% benzalkonium chloride to the left eye once daily to maintain dry eye symptoms..
# • Test time: D3, D7, D15; • Test animals: All animals were tested before grouping; all enrolled surviving animals were tested after administration; • Test method: 2 µL of 1% Fluorescein sodium was dropped into the conjunctival sac. After 5 s, the excess fluorescein was rinsed with 0.9% normal saline. The conjunctival staining was observed under a slit lamp with cobalt blue diffused light.
# as §2
Structure (SMILES),intraocular pressure after continuous ocular administration [1],"pharmacokinetic properties (plasma clearance rate, systemic exposure) [2]",target selectivity [3],tear film break-up time [4],PASI scores (psoriasis model mice),inflammatory response on the ocular surface / ocular symptoms [5],EC50 [3],Target selectivity MR/GR [3],"Intraocular pressure of guinea pigs (mmHg) D0 ([1]; D0, before administration, 50 µL/eye (compounds and fluorometholone 1 mg/mL, loteprednol 5 mg/mL))","Intraocular pressure of guinea pigs (mmHg) D7 ([1]; D7, 50 µL/eye (compounds and fluorometholone 1 mg/mL, loteprednol 5 mg/mL))","Intraocular pressure of guinea pigs (mmHg) D14 ([1]; D14, 50 µL/eye (compounds and fluorometholone 1 mg/mL, loteprednol 5 mg/mL))","Intraocular pressure of guinea pigs (mmHg) D21 ([1]; D21, 50 µL/eye (compounds and fluorometholone 1 mg/mL, loteprednol 5 mg/mL))","Intraocular pressure of guinea pigs (mmHg) D28 ([1]; D28, 50 µL/eye (compounds and fluorometholone 1 mg/mL, loteprednol 5 mg/mL))","EC50 ([3]; EC50 of agonist activity, HEK293 reporter cells, top concentration 50 µM, read-out: Nuclear receptor enzyme activity (nM) MR)","PASI score (psoriasis model mice; day 8 of modeling, 0.2 g cream per mouse daily for 7 days (compounds 1 mg/g, fluticasone propionate 0.5 mg/g))"
"C[C@]12C=CC(=O)C=C1CC[C@H]1[C@@H]3C[C@H]4OC(c5ccc(CNC6COC(=O)C6)cc5)O[C@@]4(C(=O)CO)[C@@]3(C)C[C@H](O)[C@@]12F (stereo partly drawn) [Compound 21, (6aS,6bR,7S,8aS,8bS,11aR,12aS,12bS)-6b-Fluoro-7-hydroxy-8b-(2-hydroxyacetyl)-6a,8a-dimethyl-10-(4-(((5-oxotetrahydrofuran-3-yl)amino)methyl)phenyl)-1,2,6a,6b,7,8,8a,8b,11a,12,12a,12b-dodecahydro-4H-naphtho[2',1':4,5]indeno[1,2-d][1,3]dioxol-4-one]",no abnormal intraocular pressure observed,pharmacokinetic properties similar to those of compound 8,target selectivity comparable to that of compound 23,significantly increased the tear film break-up time,significantly decreased PASI scores on day 7,significantly alleviated the ocular symptoms in dry eye syndrome model New Zealand rabbits,,,,,,,,,
"C[C@]12C=CC(=O)C=C1CC[C@H]1[C@@H]3C[C@H]4OC(c5ccc(COC6CCOC6=O)cc5)O[C@@]4(C(=O)CO)[C@@]3(C)C[C@H](O)[C@@]12F (stereo partly drawn) [Compound 16, (6aS,6bR,7S,8aS,8bS,11aR,12aS,12bS)-6b-Fluoro-7-hydroxy-8b-(2-hydroxyacetyl)-6a,8a-dimethyl-10-(4-(((2-oxotetrahydrofuran-3-yl)oxy)methyl)phenyl)-1,2,6a,6b,7,8,8a,8b,11a,12,12a,12b-do decahydro-4H-naphtho[2',1':4,5]indeno[1,2-d][1,3]dioxol-4-one]",no abnormal intraocular pressure observed,pharmacokinetic properties similar to those of compound 8,,significantly increased the tear film break-up time,significantly decreased PASI scores on day 7,significantly alleviated the ocular symptoms in dry eye syndrome model New Zealand rabbits,> 50000 nM,> 1.2×10^5,,,,,,,
"C[C@]12C=CC(=O)C=C1CC[C@H]1[C@@H]3C[C@H]4OC(c5ccc(CSC6CCOC6=O)nc5)O[C@@]4(C(=O)CO)[C@@]3(C)C[C@H](O)[C@@]12F (stereo partly drawn) [Compound 47, (6aS,6bR,7S,8aS,8bS,11aR,12aS,12bS)-6b-Fluoro-7-hydroxy-8b-(2-hydroxyacetyl)-6a,8a-dimethyl-10-(6-(((2-oxotetrahydrofuran-3-yl)thio)methyl)pyridin-3-yl)-1,2,6a,6b,7,8,8a,8b,11a,12,12a,12 b-dodecahydro-4H-naphtho[2',1':4,5]indeno[1,2-d][1,3]dioxol-4-one]",no abnormal intraocular pressure observed,pharmacokinetic properties similar to those of compound 8,,significantly increased the tear film break-up time,significantly decreased PASI scores on day 7,significantly alleviated the ocular symptoms in dry eye syndrome model New Zealand rabbits,> 50000 nM,> 1.5×10^5,,,,,,,
"C[C@]12C=CC(=O)C=C1[C@@H](F)C[C@H]1[C@@H]3C[C@H]4OC(c5ccc(CSC6CCOC6=O)cc5)O[C@@]4(C(=O)OCC#N)[C@@]3(C)C[C@H](O)[C@@]12F (stereo partly drawn) [Compound 37, Cyanomethyl (2S,6aS,6bR,7S,8aS,8bS,11aR,12aS,12bS)-2,6b-difluoro-7-hydroxy-6a,8a-dimethyl-4-oxo-10-(4-( ((2-oxotetrahydrofuran-3-yl)thio)methyl)phenyl)-1,2,4,6a,6b,7,8,8a,11a,12,12a,12b-dodecahydro-8bH-naphtho[2',1':4,5]indeno[1,2-d][1,3]dioxole-8b-carboxylate]",no abnormal intraocular pressure observed,pharmacokinetic properties similar to those of compound 8,target selectivity comparable to that of compound 23,significantly increased the tear film break-up time,significantly decreased PASI scores on day 7,significantly alleviated the ocular symptoms in dry eye syndrome model New Zealand rabbits,,,,,,,,,
"C[C@]12C=CC(=O)C=C1CC[C@H]1[C@@H]3C[C@H]4OC(c5ccc(CSC6CCOC6=O)cc5)O[C@@]4(C(=O)CO)[C@@]3(C)C[C@H](O)[C@@]12F (stereo partly drawn) [Compound 17, (6aS,6bR,7S,8aS,8bS,11aR,12aS,12bS)-6b-Fluoro-7-hydroxy-8b-(2-hydroxyacetyl)-6a,8a-dimethyl-10-(4-(((2-oxotetrahydrofuran-3-yl)thio)methyl)phenyl)-1,2,6a,6b,7,8,8a,8b,11a,12,12a,12b-do decahydro-4H-naphtho[2',1':4,5]indeno[1,2-d][1,3]dioxol-4-one]",no abnormal intraocular pressure was observed,pharmacokinetic properties similar to those of compound 8,,significantly increased the tear film break-up time,PASI scores significantly decreased on day 7,significantly alleviated the ocular symptoms in dry eye syndrome model New Zealand rabbits,,> 1.7×10^5,13.5 ± 0.6 mmHg,16.0 ± 1.4 mmHg,14.5 ± 1.9 mmHg,13.3 ± 2.5 mmHg,14.3 ± 1.5 mmHg,> 50000 nM,4.5 ± 0.6
"C[C@]12C=CC(=O)C=C1[C@@H](F)C[C@H]1[C@@H]3C[C@H]4OC(c5ccc(CSC6CCOC6=O)nc5)O[C@@]4(C(=O)CO)[C@@]3(C)C[C@H](O)[C@@]12F (stereo partly drawn) [Compound 46, (25,6aS,6bR,78,8a8,8bS,11aR,12a8,12b8S)-2,6b-Difluoro-7-hydroxy-8b-(2-hydroxyacetyl)-6a,8a-dimethyl-10-(6-(((2-oxotetrahydrofuran-3-yl)thio)methyl)pyridin-3-yl)-1,2,6a,6b,7,8,8a,8b,11a,12, 12a,12b-dodecahydro-4H-naphtho[2',1':4,5]indeno[1,2-d][1,3]dioxol-4-one]",no abnormal intraocular pressure observed,pharmacokinetic properties similar to those of compound 8,target selectivity comparable to that of compound 23,significantly increased the tear film break-up time,significantly decreased PASI scores on day 7,significantly alleviated the ocular symptoms in dry eye syndrome model New Zealand rabbits,,,,,,,,,
